Experimental data as given in patent publication US7534766B2, “Glucuronide metabolites and epimers thereof of tigecycline” (Wyeth, priority 2004, dated 2009).
Read-outs that look alike come from different tables or passages of the source.

Legend:
[1] = LC/MS detection of tigecycline metabolites in CD-1 mouse serum and urine after intravenous tigecycline; conditions: mouse, in vivo, iv, 5 mg/kg
Procedure: Fifteen male CD-1 mice, with an average weight of 31.3 g at the time of dosing, were used. Animals were given food and water ad libitum. Mice in the 0.5 and 2 hour blood collection groups were housed in standard cages, while those in the 4 hour blood collection group were housed in metabolism cages for the collection of urine. Mice were dosed by the Bioresources Department at Wyeth Research, Collegeville, Pa.
For mice and rabbits, the intravenous dosing solutions was prepared by dissolving 50 mg of tigecycline in 5.0 mL of 0.9% sterile saline solution to make a working stock solution. The working stock solution was diluted with 0.9% sterile saline solution to 0.5 mg/mL for mice and 4 mg/mL for rabbits. The mouse dose (5 mg/kg, 10 mL/kg) was administered as a bolus injection via the tail vein. The rabbit dose (4 mg/kg, 1 mL/kg) was administered as a bolus injection via the marginal vein of the ear.
For mice (n=5/time point), blood (approximately 0.7 mL) was collected by cardiac puncture at 0.5, 2 and 4 hours following administration of tigecycline. For rabbits, blood (approximately 7 mL) was collected via the ear vein at 0.5, 2 and 6 hours following the tigecycline dose. Serum was separated following clot formation at room temperature and centrifugation for 15 minutes at 4° C. and 3000 rpm. The serum was transferred to a fresh tube and was stored at approximately −70° C. until analysis as described below under “Serum Sample Preparation for LC/MS Analysis. In addition, urine was collected from mice in the 4 hour blood collection group and was stored at approximately −70° C. until analysis, as described below under “Urine Sample Preparation for LC/MS Analysis.”
Mouse urine was thawed and an aliquot (1 mL) transferred to a fresh tube. The sample was centrifuged at 14,000 rpm and room temperature for 10 minutes using a Model 5415C Eppendorf centrifuge (Brinkmann Instruments, Westbury, N.Y.) to remove any particulates. The sample was then transferred to a fresh tube and was analyzed by LC/MS, as described below under “Liquid Chromatography/Mass Spectrometry Analysis.”.
Mouse and rabbit serum samples were pooled at each collection time and analyzed for tigecycline, its epimer, tigecycline glucuronide (M7 and its epimer M6), 9-aminominocycline (M3) and N-acetyl-9-aminominocycline (M9 and its epimer M8). Aliquots of serum (500 μL) were transferred to new tubes and deuterated tigecycline (30 ng/mL final concentration) was added as an internal standard (quantitative analysis only). EDTA (40 μL of 0.5 M EDTA) was added to each sample and the samples vortex mixed. Acetonitrile (500 μL) was added to each sample, samples were vortex mixed and denatured protein separated by centrifugation at 14,000 rpm and room temperature for 10 minutes using a Model 5415C Eppendorf centrifuge (Brinkmann Instruments). The supernatant was transferred to a fresh tube and the solvent evaporated under a stream of nitrogen using a Turbovap Model LV evaporator (Caliper Life Sciences, Hopkinton, Mass.).
The HPLC system used for mass spectrometric analysis was a Waters Alliance Model 2695 HPLC system (Waters Corp., Milford, Mass.). It was equipped with a built-in autosampler and a Model 996 diode array UV detector. The UV detector was set to monitor 210-400 nm. Separations for metabolite characterization were accomplished on a Phenomenex Luna C18(2) column (150×2.1 mm, 5 μm) (Phenomenex, Torrance, Calif.) equipped with a Keystone Uniguard C18 guard column (10×2.1 mm) (Thermo Electron Corp., Bellefonte, Pa.). The column temperature was 25° C. The flow rate was 0.2 mL/min. Mobile phase A was 10 mM ammonium acetate in water and mobile phase B was acetonitrile.

[2] = Tigecycline metabolites identified in CD-1 mouse serum and urine and rabbit serum samples (LC/MS); assay type: in vivo; conditions: in vivo, iv
Procedure: The column temperature was 25° C. The flow rate was 0.2 mL/min. […] Gradient 1 was used for metabolite identification (qualitative analysis).
LC/MS analysis was conducted on extracts of serum and from CD-1 mice and rabbits, and on urine from CD-1 mice. The mass spectral data for tigecycline and its metabolites are discussed below.

[3] = following multiple administrations of tigecycline; cited from earlier work
[4] = Mass balance: percent of [14C]tigecycline dose excreted in human urine and feces
Procedure: The concentration of tigecycline-related components in serum, urine and feces was calculated based on the total radioactivity concentrations reported elsewhere. These concentrations were converted to ng-tigecycline equivalents using the specific activity of the dose (1.00 μCi/mg). Using this value, the concentrations of the specific components were then estimated based on the distribution of radioactivity in the radiochromatograms.
An open-label, inpatient, multiple-dose tigecycline, single-dose [^14C]tigecycline metabolic disposition and mass balance study was performed in six healthy male volunteers. The clinical protocol called for twelve subjects. Of these twelve, six received the radioactive dose (subjects 1, 4, 5, 6, 7, and 8 with subject 8 later dropping out of the study.) Eligible subjects were selected based on inclusion/exclusion criteria, medical history, physical examination and additional procedures outlined in the study protocol. Each subject received a 100 mg loading dose on the morning of Day 1, followed by a 50 mg maintenance dose every 12 hours for an additional 5 doses. On the morning of study Day 4, six subjects received a single 50 mg dose of [^14C]tigecycline (50 μCi). Each tigecycline dose was administered via a 30-minute intravenous infusion.
Serum samples were collected for metabolite profiling prior to tigecycline dosing and 1, 4, 8, 24 and 48 hours following the [^14C]-labeled dose. For metabolite profiling, urine samples were collected at 0-4, 4-8, 8-24 and 24-48 hours and fecal samples were collected up to 48 hours following the [^14C]-labeled dose. Serum and urine samples, and fecal homogenates were shipped on dry ice to the Biotransformation Division of Drug Safety and Metabolism, Wyeth Research, Collegeville, Pa. The details of the sample collection and sample storage are described in the mass balance portion of the study. The 24-48 hour urine and fecal samples for subject #6 were incomplete since the subject withdrew from the study. While samples from this subject were used for metabolite profiling, the samples were not included in the mass balance calculations.

[5] = Stability of [14C]tigecycline in control human serum incubated at 37° C.; conditions: for percent radioactivity in spiked control serum: 37° C., 3 μg/mL
Procedure: The stability of [^14C]tigecycline was examined in control serum incubated at 37° C. for up to 24 hours.
The stability of [^14C]tigecycline was determined in control human serum spiked with [^14C]tigecycline at 3 μg/mL and incubated at 37° C. […] Aliquots (500 μL) were removed at 0, 1, 4, 8 and 24 hours and placed into fresh vials. EDTA (40 μL of 0.5 M) was added and samples centrifuged at 14,000 rpm and room temperature for 10 min (Eppendorf centrifuge, Model 5415C). Supernatants were transferred to HPLC vials and analyzed by HPLC with radioactivity flow detection.

[6] = Stability of [14C]tigecycline in control human urine incubated at 37° C.; conditions: for percent of radioactivity in spiked control urine: 37° C., 5 μg/mL
Procedure: The stability of [^14C]tigecycline was determined in control human urine spiked with [^14C]tigecycline at 5 μg/mL and incubated at 37° C. […] Aliquots (500 μL) were removed at 0, 1, 4, 8 and 24 hours and placed into fresh vials. These urine samples were processed and analyzed as described for serum in control example 2.

[7] = Stability of [14C]tigecycline during extraction from control human serum; assay type: in vitro ADME
Description: In serum samples, [^14C]tigecycline accounted for 94% of the radioactivity prior to spiking and extracting the samples. After the extraction process, the amount of [^14C]tigecycline had decreased 24% to 70% of the radioactivity. There was a corresponding increase in other radioactive components, mainly the epimer of tigecycline, which increased from 4% prior to extraction to 22% following the extraction. Other minor products, which included M3a, increased from 2% prior to extraction to 8% following the extraction.
Additional serum samples were prepared as descried above and extracted. This was done to determine the effects, if any, of the extraction process on the stability of [^14C]tigecycline. These samples were analyzed by HPLC with radioactivity flow detection, as described in example 6.

[8] = Stability of [14C]tigecycline during extraction from control human fecal homogenates; assay type: in vitro ADME
Description: Similar results were observed following the extraction of [^14C]tigecycline from control fecal homogenates. In these samples, [^14C]tigecycline accounted for 94% of the radioactivity prior to extraction and 68% following the extraction. There was a corresponding increase in the epimer of tigecycline, which represented 4% of the radioactivity prior to extraction and 23% following the extraction. […] Other minor products represented less than 1% of the radioactivity prior to the extraction and 4% following the extraction.
The stability of [^14C]tigecycline during the extraction process was determined in control human fecal homogenates spiked with [^14C]tigecycline at 5 μg/g of homogenate. […] Samples were extracted and analyzed by HPLC with radioactivity flow detection.

[9] = rats, cited from earlier work
[10] = dogs, cited from earlier work

SMILES: CC(=O)Nc1cc(N(C)C)c2c(c1O)C(=O)C1=C(O)C3(O)C(=O)C(C(N)=O)=C(O)C(N(C)C)C3CC1C2 (stereo not drawn) [Metabolite M9, N-acetyl-9-aminominocycline]
- observed in mouse urine by LC/MS [1]: No M9 was observed
- Species and matrix in which identified [2]: R-S
- concentrations previously reported in human serum [3]: 3 to 15 ng/mL

SMILES: CN(C)c1cc(N[14C](=O)CNC(C)(C)C)c(O)c2c1CC1CC3C(N(C)C)C(O)=C(C(N)=O)C(=O)C3(O)C(O)=C1C2=O (stereo not drawn) [[^14C]tigecycline]
- radioactivity excreted in feces (mean) ([4]; complete collection, n=3): 58.6±4.4%
- radioactivity excreted in urine (mean) ([4]; complete collection, n=3): 33.2±1.9%
- [14C]tigecycline dose recovered ([4]; first 48 hours, urine + feces): Approximately 50%
- Mean total recovery of radioactivity in human excreta ([4]; urine + feces, n=3): 91.8%
- percent radioactivity in spiked control serum ([5]; 0 hours): 90%
- percent radioactivity in spiked control serum ([5]; 24 hours): 81%
- decrease in percent radioactivity in spiked control serum ([5]; over 24 hours at 37° C.): approximately 9%
- percent of radioactivity in spiked control urine ([6]; 0 hours): 92%
- decrease in percent of radioactivity in spiked control urine ([6]; 0 to 24 hours at 37° C.): 18%
- percent of radioactivity in spiked control urine ([6]; 24 hours): 74%
- percent of the radioactivity, control serum ([7]; after the extraction process): 70%
- decrease in percent of the radioactivity, control serum ([7]; during the extraction process): 24%
- percent of the radioactivity, control serum ([7]; prior to spiking and extracting): 94%
- percent of the radioactivity, control fecal homogenates ([8]; following the extraction): 68%
- percent of the radioactivity, control fecal homogenates ([8]; prior to extraction, 5 μg/g of homogenate): 94%
- single intravenous [14C]tigecycline dose recovered ([9]; including cage rinse): approximately 89%
- dose recovered in feces [9]: 53%
- dose recovered in urine [9]: 34%
- single intravenous [14C]tigecycline dose recovered ([10]; including cage rinse): approximately 89%
- dose recovered in feces [10]: 47%
- dose recovered in urine [10]: 36%
